“And” between values parts separate entries of the source, which are not always exact repeats. Equal entries are not always repeated. Toxic doses and inconclusive results are not listed. The calls were made as follows: active = survival T/C of 150% or more; inactive = T/C below 125% in these data.
System: BDF1 mice, P388 leukemia ip, median survival T/C
Test: NCI In Vivo Anticancer Drug Screen. Data for tumor model P388 Leukemia (intraperitoneal) in B6D2F1 (BDF1) mice
Conditions: endpoint: median survival time, higher = longer survival
Method in brief: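 Each value expresses how treatment altered survival: treated-mouse outcome over vehicle-mouse outcome, both groups bearing the transplanted tumour.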

[1] = dose: 100.0 mg/kg/injection, schedule: Q04DX003 (ip), vehicle: other
[2] = dose: 12.5 mg/kg/injection, schedule: Q04DX003 (ip), vehicle: water
[3] = dose: 25.0 mg/kg/injection, schedule: Q04DX003 (ip), vehicle: water
[4] = dose: 50.0 mg/kg/injection, schedule: Q04DX003 (ip), vehicle: water
[5] = dose: 100.0 mg/kg/injection, schedule: Q04DX003 (ip), vehicle: water
[6] = dose: 50.0 mg/kg/injection, schedule: Q01DX009 (ip), vehicle: saline with Tween-80
[7] = dose: 100.0 mg/kg/injection, schedule: Q01DX009 (ip), vehicle: saline with Tween-80
[8] = dose: 12.5 mg/kg/injection, schedule: Q01DX009 (ip), vehicle: saline
[9] = dose: 25.0 mg/kg/injection, schedule: Q01DX009 (ip), vehicle: saline
[10] = dose: 50.0 mg/kg/injection, schedule: Q01DX009 (ip), vehicle: saline
[11] = dose: 50.0 mg/kg/injection, schedule: Q04DX003 (ip), vehicle: saline
[12] = dose: 100.0 mg/kg/injection, schedule: Q04DX003 (ip), vehicle: saline
[13] = dose: 200.0 mg/kg/injection, schedule: Q04DX003 (ip), vehicle: saline
[14] = dose: 6.25 mg/kg/injection, schedule: Q01DX009 (ip), vehicle: saline with Tween-80
[15] = dose: 12.5 mg/kg/injection, schedule: Q01DX009 (ip), vehicle: saline with Tween-80
[16] = dose: 100.0 mg/kg/injection, schedule: Q04DX003 (ip), vehicle: saline with Tween-80
[17] = dose: 200.0 mg/kg/injection, schedule: Q01DX009 (ip), vehicle: saline with Tween-80
[18] = dose: 200.0 mg/kg/injection, schedule: Q04DX003 (ip), vehicle: saline with Tween-80
[19] = dose: 400.0 mg/kg/injection, schedule: Q01DX009 (ip), vehicle: saline with Tween-80
[20] = dose: 400.0 mg/kg/injection, schedule: Q04DX003 (ip), vehicle: saline with Tween-80
[21] = dose: 25.0 mg/kg/injection, schedule: Q01DX009 (ip), vehicle: other

Measured: T/C

O=C(NCCc1ccccc1)Nc1ccccc1
inactive: dose: 75.0 mg/kg/injection, schedule: Q01DX009 (ip), vehicle: saline with Tween-80 95 % of control | dose: 150.0 mg/kg/injection, schedule: Q01DX009 (ip), vehicle: saline with Tween-80 104 % of control | dose: 300.0 mg/kg/injection, schedule: Q01DX009 (ip), vehicle: saline with Tween-80 109 % of control

Cc1ccc(C)c(Nc2cc(=O)[nH]c(=O)[nH]2)c1
inactive: dose: 100.0 mg/kg/injection, schedule: Q01DX001 (ip), vehicle: Klucel (hydroxypropylcellulose) (HPC) 98 % of control | dose: 200.0 mg/kg/injection, schedule: Q01DX001 (ip), vehicle: Klucel (hydroxypropylcellulose) (HPC) 103 % of control

NNC(=O)c1c[nH]c2ccccc2c1=O
inactive: dose: 12.5 mg/kg/injection, schedule: Q01DX009 (ip), vehicle: Klucel (hydroxypropylcellulose) (HPC) 104 % of control | dose: 25.0 mg/kg/injection, schedule: Q01DX009 (ip), vehicle: Klucel (hydroxypropylcellulose) (HPC) 104 % of control | dose: 50.0 mg/kg/injection, schedule: Q01DX009 (ip), vehicle: Klucel (hydroxypropylcellulose) (HPC) 91 % of control | dose: 75.0 mg/kg/injection, schedule: Q01DX009 (ip), vehicle: Klucel (hydroxypropylcellulose) (HPC) 108 % of control | dose: 115.0 mg/kg/injection, schedule: Q01DX009 (ip), vehicle: Klucel (hydroxypropylcellulose) (HPC) 91 % of control | dose: 170.0 mg/kg/injection, schedule: Q01DX009 (ip), vehicle: Klucel (hydroxypropylcellulose) (HPC) 95 % of control

CCOC(=O)C(c1ccccc1)c1ccccc1
inactive: [1] 100 % of control | dose: 200.0 mg/kg/injection, schedule: Q04DX003 (ip), vehicle: other 95 % of control | dose: 400.0 mg/kg/injection, schedule: Q04DX003 (ip), vehicle: other 90 % of control

O=C(NCCNCc1ccccc1)c1ccccc1
inactive: dose: 12.5 mg/kg/injection, schedule: Q01DX009 (ip), vehicle: water 96 % of control | [2] 92 % of control | dose: 16.0 mg/kg/injection, schedule: Q01DX009 (ip), vehicle: water 100 % of control | dose: 25.0 mg/kg/injection, schedule: Q01DX009 (ip), vehicle: water 99 % of control and 122 % of control | [3] 95 % of control and 99 % of control | dose: 40.0 mg/kg/injection, schedule: Q01DX009 (ip), vehicle: water 113 % of control | dose: 50.0 mg/kg/injection, schedule: Q01DX009 (ip), vehicle: water 103 % of control | [4] 97 % of control | dose: 100.0 mg/kg/injection, schedule: Q01DX009 (ip), vehicle: water 90 % of control | [5] 95 % of control and 99 % of control

CCOC(=O)/C(=C(/N)C1OC(COC(c2ccccc2)(c2ccccc2)c2ccccc2)C2OC(C)(C)OC12)C1CC(=O)N(C)C1=O (configuration not stated)
inactive: [6] 99 % of control | [7] 90 % of control

COc1ccc2[nH]c(=O)c(C)c(C)c2c1
inactive: dose: 3.12 mg/kg/injection, schedule: Q01DX009 (ip), vehicle: saline 98 % of control | dose: 6.25 mg/kg/injection, schedule: Q01DX009 (ip), vehicle: saline 94 % of control | [8] 94 % of control | [9] 92 % of control | dose: 25.0 mg/kg/injection, schedule: Q04DX003 (ip), vehicle: saline 107 % of control | [10] 96 % of control and 117 % of control | [11] 118 % of control | dose: 100.0 mg/kg/injection, schedule: Q01DX009 (ip), vehicle: saline 94 % of control | [12] 111 % of control | [13] 100 % of control | dose: 400.0 mg/kg/injection, schedule: Q04DX003 (ip), vehicle: saline 115 % of control

OCC(F)(F)C(F)(F)C(F)(F)C(F)F
inactive: dose: 100.0 mg/kg/injection, schedule: Q01DX009 (ip), vehicle: Klucel (hydroxypropylcellulose) (HPC) 95 % of control | dose: 100.0 mg/kg/injection, schedule: Q04DX003 (ip), vehicle: Klucel (hydroxypropylcellulose) (HPC) 104 % of control | dose: 200.0 mg/kg/injection, schedule: Q01DX009 (ip), vehicle: Klucel (hydroxypropylcellulose) (HPC) 105 % of control | dose: 200.0 mg/kg/injection, schedule: Q04DX003 (ip), vehicle: Klucel (hydroxypropylcellulose) (HPC) 100 % of control | dose: 400.0 mg/kg/injection, schedule: Q01DX009 (ip), vehicle: Klucel (hydroxypropylcellulose) (HPC) 115 % of control | dose: 400.0 mg/kg/injection, schedule: Q04DX003 (ip), vehicle: Klucel (hydroxypropylcellulose) (HPC) 90 % of control

NC(=O)Oc1cccc(OC(N)=O)c1
inactive: [2] 106 % of control | [3] 106 % of control | [4] 111 % of control | [5] 106 % of control

CC1(C)N=C(N)N=C(N)N1c1ccccc1
inactive: [8] 118 % of control | [9] 113 % of control | [10] 118 % of control

CC/C=N/NC(N)=S
inactive: dose: 3.13 mg/kg/injection, schedule: Q01DX009 (ip), vehicle: saline with Tween-80 94 % of control | [14] 94 % of control | [15] 94 % of control

CC(C)CCCBr
inactive: [7] 118 % of control | [16] 108 % of control | [17] 113 % of control | [18] 112 % of control | [19] 122 % of control | [20] 108 % of control

CCOC(=O)Nc1cc(NC(C)CCCN(CC)CC)c2ncc(-c3cc(OC)c(OC)c(OC)c3)nc2n1 (configuration not stated) (tested in a mixture with another compound)
inactive: [9] 115 % of control | [10] 120 % of control | [11] 95 % of control | [12] 109 % of control

CCCCN1CCNCC1
inactive: [11] 95 % of control | [12] 100 % of control | [13] 100 % of control

Cc1cc2nc3c(nc2cc1C)-c1ccccc1C3=O
inactive: [16] 110 % of control | [18] 100 % of control | [20] 100 % of control

CCOC(=O)C(=O)C1CCCC1=O (configuration not stated)
inactive: [7] 92 % of control | [16] 95 % of control | [17] 89 % of control | [18] 109 % of control | [19] 92 % of control | [20] 100 % of control

CN(C)CCCN1c2ccc(O)cc2Sc2ccc(Cl)cc21
inactive: dose: 3.1 mg/kg/injection, schedule: Q01DX009 (ip), vehicle: other 90 % of control | dose: 6.2 mg/kg/injection, schedule: Q01DX009 (ip), vehicle: other 90 % of control | dose: 12.5 mg/kg/injection, schedule: Q01DX009 (ip), vehicle: other 104 % of control | [21] 109 % of control | dose: 25.0 mg/kg/injection, schedule: Q01DX009 (ip), vehicle: saline with Tween-80 91 % of control | [6] 91 % of control | [7] 100 % of control

Cc1ccc(N2CCOC2=O)cc1N1CCOC1=O
inactive: [21] 100 % of control | dose: 25.0 mg/kg/injection, schedule: Q04DX003 (ip), vehicle: other 109 % of control | dose: 50.0 mg/kg/injection, schedule: Q01DX009 (ip), vehicle: other 100 % of control | dose: 50.0 mg/kg/injection, schedule: Q04DX003 (ip), vehicle: other 100 % of control | dose: 100.0 mg/kg/injection, schedule: Q01DX009 (ip), vehicle: other 109 % of control | [1] 100 % of control

CC1(C)CC(=O)C(C)(C)C(=O)C1
inactive: dose: 3.0 mg/kg/injection, schedule: Q04DX003 (ip), vehicle: saline with Tween-80 95 % of control | dose: 6.0 mg/kg/injection, schedule: Q04DX003 (ip), vehicle: saline with Tween-80 108 % of control | [14] 100 % of control | dose: 12.0 mg/kg/injection, schedule: Q04DX003 (ip), vehicle: saline with Tween-80 100 % of control | [15] 104 % of control | dose: 25.0 mg/kg/injection, schedule: Q04DX003 (ip), vehicle: saline with Tween-80 95 % of control

COC(=O)C1=C(C)NC(=O)NC1c1ccccc1 (configuration not stated)
inactive: dose: 100.0 mg/kg/injection, schedule: Q01DX001 (ip), vehicle: saline with Tween-80 100 % of control | dose: 200.0 mg/kg/injection, schedule: Q01DX001 (ip), vehicle: saline with Tween-80 100 % of control | dose: 400.0 mg/kg/injection, schedule: Q01DX001 (ip), vehicle: saline with Tween-80 100 % of control

— PubChem BioAssay AID328 (DTP/NCI, 2004)
